Data published in publication PMC10146957, “Systematic Studies on Anti-Cancer Evaluation of Stilbene and Dibenzo[b,f]oxepine Derivatives” (Molecules, 2023).

system: HCT116 cells; experiment: MTT cytotoxicity assay, HCT116 cells; type: cell-based, human; conditions: 100 μM, 48 h of treatment
Procedure: (§1) Cells were cultured in a humidified incubator at 37 °C under 5% CO2. Human colorectal carcinoma (HCT116) cells were grown in McCoy’s 5A Medium (ATCC, Catalog No. 30-2007), human breast adenocarcinoma (MCF-7) and human dermal fibroblasts (HDF-A) cells were maintained in Dulbecco’s Modified Eagle’s Medium (DMEM, Sigma D5546) supplemented with 2 mM L-glutamine. Human embryonic kidney (HEK293) cell line was cultured in Dulbecco’s Modified Eagle’s Medium (DMEM, Gibco 31966-021). All culture media were supplemented with 1% Penicillin-Streptomycin (Sigma-Aldrich, P4333) and 10% fetal bovine serum (Gibco, 10270-106). Cells were sub-cultured at approximately 80–90% confluency to maintain the culture in the logarithmic growth phase.
(§2) Cells were seeded at a 96-well plate at the density of 7 × 10^3 cells per well and allowed to grow for 24 h. Afterward, the medium was aspirated and fresh medium was added (200 μL) with serial dilutions (100 − 10 μM) of tested compounds or DMSO at corresponding concentrations as a control. Following 48 h of incubation, the medium was replaced with phenol red-free medium (100 μL) containing MTT (3-(4,5-dimethylthiazol-2-yl)-2,5-diphenyl-2H-tetrazolium bromide, 0.5 mg/mL) and replaced in the incubator for 4 h. The formed formazan was dissolved in DMSO (100 μL) followed by incubation of the mixture at 37 °C for 10 min. The absorbance was measured at 540 nm. After blank subtraction, the half maximal effective concentration (EC50) was calculated by GraphPad Prism software (GraphPad Software Inc, San Diego, CA, USA).

| Structure (SMILES) | cell viability (in words) |
| --- | --- |
| COc1cc2c(cc1OC)Oc1cc([N+](=O)[O-])ccc1C=C2 [Compound 2f, 2,3-dimethoxy-7-nitrodibenzo[b,f]oxepine] | only minimally affected |
| COc1cccc2c1Oc1cc(N)ccc1C=C2 [Compound 3b, 6-methoxydibenzo[b,f]oxepin-3-amine] | only minimally affected |
| COc1cc2c(cc1OC)Oc1cc(N)ccc1C=C2 [Compound 3f, 7,8-dimethoxydibenzo[b,f]oxepin-3-amine] | only minimally affected |

same assay, conditions: Homo sapiens, HCT-116, 48 h, mean ± SEM

| Structure (SMILES) | IC50 [µM] |
| --- | --- |
| CC(=O)Oc1ccc2c(c1)Oc1cc([N+](=O)[O-])ccc1C=C2 [Compound 2j, 7-nitrodibenzo[b,f]oxepin-3-yl acetate] | 53 ± 3 |

system: not listed separately; experiment: MTT cytotoxicity assay, HCT116 cells; type: cell-based, human; conditions: human, HCT116 cells (human colorectal carcinoma), 100 μM, 48 h of treatment, read-out: cell viability
Procedure: as §1, §2

| Structure (SMILES) | viability at 48 h, 100 µM [%] |
| --- | --- |
| CC(=O)Oc1ccc2c(c1)Oc1cc([N+](=O)[O-])ccc1C=C2 [Compound 2j, 7-nitrodibenzo[b,f]oxepin-3-yl acetate] | < 30 |

system: MCF-7 cells; experiment: MTT cytotoxicity assay, MCF-7 cells; type: cell-based; conditions: Homo sapiens, MCF7, 48 h, mean ± SEM
Procedure: as §1, §2

| Structure (SMILES) | IC50 [µM] |
| --- | --- |
| CC(=O)Oc1ccc2c(c1)Oc1cc([N+](=O)[O-])ccc1C=C2 [Compound 2j, 7-nitrodibenzo[b,f]oxepin-3-yl acetate] | 36 ± 3 |

system: not given; experiment: not given; conditions: not given

| melting point [°C] | Structure (SMILES) |
| --- | --- |
| 145 | CC(=O)Oc1ccc2c(c1)Oc1cc(N)ccc1C=C2 [Compound 3j, 7-aminodibenzo[b,f]oxepin-3-yl acetate] |
| 212 | COc1cccc(O)c1/C=C/c1ccc([N+](=O)[O-])cc1[N+](=O)[O-] |
| 216 | O=[N+]([O-])c1ccc2c(c1)C=Cc1ccc([N+](=O)[O-])cc1O2 |
| 167 | COc1ccc2c(c1)C=Cc1ccc([N+](=O)[O-])cc1O2 [Compound 2d, 2-methoxy-7-nitrodibenzo[b,f]oxepine] |
| 189 | COc1ccc2c(c1)Oc1cc([N+](=O)[O-])ccc1C=C2 [Compound 2c, 3-methoxy-7-nitrodibenzo[b,f]oxepine] |
| 156 | O=[N+]([O-])c1ccc2c(c1)Oc1ccccc1C=C2 [Compound 2a, 3-nitrodibenzo[b,f]oxepine] |
| 133 | CC(=O)Oc1ccc2c(c1)Oc1cc([N+](=O)[O-])ccc1C=C2 [Compound 2j, 7-nitrodibenzo[b,f]oxepin-3-yl acetate] |
| 158 | COc1ccc2c(c1)C=Cc1ccc(N)cc1O2 [Compound 3d, 8-methoxydibenzo[b,f]oxepin-3-amine] |

system: HEK293 cells; experiment: MTT cytotoxicity assay, HEK293 cells; type: cell-based; conditions: Homo sapiens, 48 h, mean ± SEM
Procedure: as §1, §2

| Structure (SMILES) | IC50 [µM] |
| --- | --- |
| CC(=O)Oc1ccc2c(c1)Oc1cc([N+](=O)[O-])ccc1C=C2 [Compound 2j, 7-nitrodibenzo[b,f]oxepin-3-yl acetate] | 85 ± 4 |
